ChEMBL document CHEMBL5154747, “Discovery of new carbonic anhydrase IX inhibitors as anticancer agents by toning the hydrophobic and hydrophilic rims of the active site to encounter the dual-tail approach” (Eur J Med Chem, 2022)

The compounds below were run against Carbonic anhydrase 9 (Homo sapiens, UniProt Q16790) (assay: Inhibition of recombinant human CA 9 preincubated for 15 mins by phenol red dye based stopped flow CO2 hydration assay). Conditions: not given.

SMILES	Ki [nM]
NS(=O)(=O)c1ccc(Nc2nc(N/N=C/c3ccc(C(F)(F)F)cc3)nc(Nc3ccccc3)n2)cc1	29.7

Each compound was assayed on CCRF-CEM (assay: Anticancer activity against human CCRF-CEM cells assessed as cell growth inhibition at 10 uM incubated for 48 hrs by SRB assay relative to control). Conditions: read-out: GI.
Format: functional

SMILES	inhibition of growth at 10 µM [%]
NS(=O)(=O)c1ccc(Nc2nc(N/N=C/c3ccc(C(F)(F)F)cc3)nc(Nc3ccccc3)n2)cc1	88

What follows are compounds tested on HL-60(TB) (assay: Anticancer activity against human HL-60(TB) cells assessed as cell growth inhibition at 10 uM incubated for 48 hrs by SRB assay relative to control). Conditions: read-out: GI.
Format: functional

SMILES	inhibition of growth at 10 µM [%]
NS(=O)(=O)c1ccc(Nc2nc(N/N=C/c3ccc(C(F)(F)F)cc3)nc(Nc3ccccc3)n2)cc1	51

These compounds were tested on K562 (assay: Anticancer activity against human K562 cells assessed as cell growth inhibition at 10 uM incubated for 48 hrs by SRB assay relative to control). Conditions: read-out: GI.
Format: functional

SMILES	inhibition of growth at 10 µM [%]
NS(=O)(=O)c1ccc(Nc2nc(N/N=C/c3ccc(C(F)(F)F)cc3)nc(Nc3ccccc3)n2)cc1	82

What follows are compounds tested on RPMI-8226 (assay: Anticancer activity against human RPMI-8226 cells assessed as cell growth inhibition at 10 uM incubated for 48 hrs by SRB assay relative to control). Conditions: read-out: GI.
Format: functional

SMILES	inhibition of growth at 10 µM [%]
NS(=O)(=O)c1ccc(Nc2nc(N/N=C/c3ccc(C(F)(F)F)cc3)nc(Nc3ccccc3)n2)cc1	105

What follows are compounds tested on SR (assay: Anticancer activity against human SR cells assessed as cell growth inhibition at 10 uM incubated for 48 hrs by SRB assay relative to control). Conditions: read-out: GI.
Format: functional

SMILES	inhibition of growth at 10 µM [%]
NS(=O)(=O)c1ccc(Nc2nc(N/N=C/c3ccc(C(F)(F)F)cc3)nc(Nc3ccccc3)n2)cc1	92

Each compound was assayed on EKVX (assay: Anticancer activity against human EKVX cells assessed as cell growth inhibition at 10 uM incubated for 48 hrs by SRB assay relative to control). Conditions: read-out: GI.
Format: functional

SMILES	inhibition of growth at 10 µM [%]
NS(=O)(=O)c1ccc(Nc2nc(N/N=C/c3ccc(C(F)(F)F)cc3)nc(Nc3ccccc3)n2)cc1	46

What follows are compounds tested on HOP-92 (assay: Anticancer activity against human HOP-92 cells assessed as cell growth inhibition at 10 uM incubated for 48 hrs by SRB assay relative to control). Conditions: read-out: GI.
Format: functional

SMILES	inhibition of growth at 10 µM [%]
NS(=O)(=O)c1ccc(Nc2nc(N/N=C/c3ccc(C(F)(F)F)cc3)nc(Nc3ccccc3)n2)cc1	42

The compounds below were run on NCI-H23 (assay: Anticancer activity against human NCI-H23 cells assessed as cell growth inhibition at 10 uM incubated for 48 hrs by SRB assay relative to control). Conditions: read-out: GI.
Format: functional

SMILES	inhibition of growth at 10 µM [%]
NS(=O)(=O)c1ccc(Nc2nc(N/N=C/c3ccc(C(F)(F)F)cc3)nc(Nc3ccccc3)n2)cc1	47

The compounds below were run on NCI-H460 (assay: Anticancer activity against human NCI-H460 cells assessed as cell growth inhibition at 10 uM incubated for 48 hrs by SRB assay relative to control). Conditions: read-out: GI.
Format: functional

SMILES	inhibition of growth at 10 µM [%]
NS(=O)(=O)c1ccc(Nc2nc(N/N=C/c3ccc(C(F)(F)F)cc3)nc(Nc3ccccc3)n2)cc1	85

The compounds below were run on NCI-H522 (assay: Anticancer activity against human NCI-H522 cells assessed as cell growth inhibition at 10 uM incubated for 48 hrs by SRB assay relative to control). Conditions: read-out: GI.
Format: functional

SMILES	inhibition of growth at 10 µM [%]
NS(=O)(=O)c1ccc(Nc2nc(N/N=C/c3ccc(C(F)(F)F)cc3)nc(Nc3ccccc3)n2)cc1	62

These compounds were tested on COLO 205 (assay: Anticancer activity against human COLO 205 cells assessed as cell growth inhibition at 10 uM incubated for 48 hrs by SRB assay relative to control). Conditions: read-out: GI.
Format: functional

SMILES	inhibition of growth at 10 µM [%]
NS(=O)(=O)c1ccc(Nc2nc(N/N=C/c3ccc(C(F)(F)F)cc3)nc(Nc3ccccc3)n2)cc1	70

The compounds below were run on HCC 2998 (assay: Anticancer activity against human HCC 2998 cells assessed as cell growth inhibition at 10 uM incubated for 48 hrs by SRB assay relative to control). Conditions: read-out: GI.
Format: functional

SMILES	inhibition of growth at 10 µM [%]
NS(=O)(=O)c1ccc(Nc2nc(N/N=C/c3ccc(C(F)(F)F)cc3)nc(Nc3ccccc3)n2)cc1	46

Each compound was assayed on HCT-116 (assay: Anticancer activity against human HCT-116 cells assessed as cell growth inhibition at 10 uM incubated for 48 hrs by SRB assay relative to control). Conditions: read-out: GI.
Format: functional

SMILES	inhibition of growth at 10 µM [%]
NS(=O)(=O)c1ccc(Nc2nc(N/N=C/c3ccc(C(F)(F)F)cc3)nc(Nc3ccccc3)n2)cc1	90

Each compound was assayed on HCT-15 (assay: Anticancer activity against human HCT-15 cells assessed as cell growth inhibition at 10 uM incubated for 48 hrs by SRB assay relative to control). Conditions: read-out: GI.
Format: functional

SMILES	inhibition of growth at 10 µM [%]
NS(=O)(=O)c1ccc(Nc2nc(N/N=C/c3ccc(C(F)(F)F)cc3)nc(Nc3ccccc3)n2)cc1	68

These compounds were tested on HT-29 (assay: Anticancer activity against human HT-29 cells assessed as cell growth inhibition at 10 uM incubated for 48 hrs by SRB assay relative to control). Conditions: read-out: GI.
Format: functional

SMILES	inhibition of growth at 10 µM [%]
NS(=O)(=O)c1ccc(Nc2nc(N/N=C/c3ccc(C(F)(F)F)cc3)nc(Nc3ccccc3)n2)cc1	88

The compounds below were run on SW-620 (assay: Anticancer activity against human SW-620 cells assessed as cell growth inhibition at 10 uM incubated for 48 hrs by SRB assay relative to control). Conditions: read-out: GI.
Format: functional

SMILES	inhibition of growth at 10 µM [%]
NS(=O)(=O)c1ccc(Nc2nc(N/N=C/c3ccc(C(F)(F)F)cc3)nc(Nc3ccccc3)n2)cc1	45

The compounds below were run on SF-539 (assay: Anticancer activity against human SF-539 cells assessed as cell growth inhibition at 10 uM incubated for 48 hrs by SRB assay relative to control). Conditions: read-out: GI.
Format: functional

SMILES	inhibition of growth at 10 µM [%]
NS(=O)(=O)c1ccc(Nc2nc(N/N=C/c3ccc(C(F)(F)F)cc3)nc(Nc3ccccc3)n2)cc1	76

What follows are compounds tested on SNB-19 (assay: Anticancer activity against human SNB-19 cells assessed as cell growth inhibition at 10 uM incubated for 48 hrs by SRB assay relative to control). Conditions: read-out: GI.
Format: functional

SMILES	inhibition of growth at 10 µM [%]
NS(=O)(=O)c1ccc(Nc2nc(N/N=C/c3ccc(C(F)(F)F)cc3)nc(Nc3ccccc3)n2)cc1	66

Each compound was assayed on SNB-75 (assay: Anticancer activity against human SNB-75 cells assessed as cell growth inhibition at 10 uM incubated for 48 hrs by SRB assay relative to control). Conditions: read-out: GI.
Format: functional

SMILES	inhibition of growth at 10 µM [%]
NS(=O)(=O)c1ccc(Nc2nc(N/N=C/c3ccc(C(F)(F)F)cc3)nc(Nc3ccccc3)n2)cc1	58
